Test results published in US8022225B2, “Triazole derivative” (Taisho Pharmaceutical Co., Ltd, priority 2004, dated 2011).

Legend:
[1] = target: T1, human Edg-1(S1P1) (Homo sapiens, UniProt P21453); experiment: Membrane system binding test: inhibition of [33P]-S1P binding to the membrane fraction of Edg-1(S1P1) gene transferred HEK-293 cells; conditions: 10 μM compound; [33P]-S1P 0.1 nM; membrane fraction of Edg-1(S1P1) gene transferred HEK-293 cells; read-out: Membrane system binding test % inhibition (10 μM)
T1 construct: expressed in transfected cells; host or cells: HEK-293
T1 sequence (P21453 whole entry): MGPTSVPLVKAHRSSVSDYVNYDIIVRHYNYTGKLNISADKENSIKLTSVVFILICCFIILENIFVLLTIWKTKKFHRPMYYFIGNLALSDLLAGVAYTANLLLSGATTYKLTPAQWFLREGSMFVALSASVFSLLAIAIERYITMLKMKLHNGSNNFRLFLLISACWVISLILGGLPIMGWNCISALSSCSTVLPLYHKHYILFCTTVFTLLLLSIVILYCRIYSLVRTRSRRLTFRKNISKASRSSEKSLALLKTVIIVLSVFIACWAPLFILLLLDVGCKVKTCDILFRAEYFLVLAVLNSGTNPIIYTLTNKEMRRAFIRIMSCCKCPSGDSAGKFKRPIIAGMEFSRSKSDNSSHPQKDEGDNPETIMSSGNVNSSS
Method in brief: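 Membranes from HEK-293 cells transfected with Edg-1(S1P1) incubated 1 h at 30 °C with 0.1 nM [^33P]-S1P and compound at 10^−5 M (0.1% DMSO), pH 7.4 buffer with fatty acid-free BSA. Filter-bound radioactivity counted; inhibition rate calculated against no-compound binding, with untransfected-cell background subtracted.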

[2] = target: T1, human Edg-1(S1P1); experiment: Cell system binding test: inhibition of [3H]-S1P binding to Edg-1(S1P1) gene transferred HEK-293 cells; conditions: 10 μM compound, [3H]-S1P 10 nM, read-out: Cell system binding test % inhibition (10 μM)

| inhibition at 10 µM [1] | inhibition at 10 µM [2] | melting point | SMILES |
| --- | --- | --- | --- |
| 57.4% | 75.8% | 142 to 143 °C | C=CCSc1nnc([C@@H](C)N(C)S(=O)(=O)c2ccc(Cl)cc2)n1CC [Compound 99, N-{(1R)-1-[5-(allylthio)-4-ethyl-4H-1,2,4-triazol-3-yl]ethyl}-4-chloro-N-methylbenzenesulfonamide] |
| 52.4% | 69% | 161.5 to 162 °C | C=CCSc1nnc(C(CCC)NS(=O)(=O)c2ccc(Cl)cc2)n1C (stereo not drawn) [Compound 125, N-{1-[(5-allylthio)-4-methyl-4H-1,2,4-triazol-3-yl]butyl}-4-chlorobenzenesulfonamide] |
| 97.7% | 89.2% | 150.5 to 151.5 °C | CCCOc1nnc([C@@H](C)NS(=O)(=O)c2ccc(Cl)cc2)n1CC [Compound 183, 4-Chloro-N-[(1R)-1-(4-ethyl-5-propoxy-4H-1,2,4-triazol-3-yl)ethyl]benzenesulfonamide] |
| 57.3% | 90.7% | 161 to 162 °C | CCn1c(OC)nnc1[C@@H](C)NS(=O)(=O)c1ccccc1 [Compound 376, [(1R)-1-(4-Ethyl-5-methoxy-4H-[1,2,4]triazol-3-yl)ethyl]benzenesulfonamide] |
